Results on two compounds are retold here after patent US4616010A, “Imidazodiazepine derivatives” (Hoffmann-La Roche Inc., priority 1985, dated 1986).

Data set [1] is described as follows: acute toxicity, single oral administration to mice. The following applies: mouse, in vivo. An excerpt: The results obtained with representative members of the class of compounds defined by formula I in the experiments described previously are compiled in the following Table. Moreover, the Table contains data concerning the acute toxicity of some of these compounds (LD50 in mg/kg in the case of single oral administration to mice).

Data set [2] concerns the target central benzodiazepine receptors. The data set can be described thus: inhibition of the binding of tritiated diazepam at the specific benzodiazepine receptors in the cerebral cortex. An excerpt:
The affinity of compounds of formula I to the central benzodiazepine receptors has been determined according to the method described in Life Science 20, 2101-2110 (1977) and Science 198, 849-851 (1977). According to this method, the inhibition of the binding of tritiated diazepam at the specific benzodiazepine receptors in the cerebral cortex by the respective test substances is ascertained. The IC50 ("50% inhibiting concentration") is that concentration of the respective test substance which brings about a 50 percent inhibition of the specific binding of the tritiated diazepam at the specific benzodiazepine receptors in the cerebral cortex.

Data set [3] has as its system spasmodic seizures caused by pentetrazole. The data set can be described thus: antipentetrazole test (anticonvulsant activity). It counts as in vivo. The conditions noted are these: Rattus norvegicus, po; female rats 60-80 g; compound orally 30 min before pentetrazole 120 mg/kg i.p.; dose protecting 50%, Probit method. Here is the method:
The central properties of the compounds of formula I in accordance with the invention can be determined, for example, in the antipentetrazole test described hereinafter, which is generally recognized for recording anticonvulsant properties.
In this animal experiment, the compound under investigation is administered orally to female rats weighing 60-80 g and 30 minutes later there are administered i.p. 120 mg/kg of pentetrazole, which causes emprosthotonus and tonic stretchings of the fore and/or hind limbs in unprotected experimental animals 1-4 minutes after the injection. Ten experimental animals are used per dosage of test substance. After counting the protected experimental animals, the ED50 is determined according to the Probit method. The ED50 is that dosage which protects 50% of the experimental animals from the spasmodic seizures caused by pentetrazole.

As usually defined, the LD50 is the dose at which mortality reaches 50%. Read a low LD50 as a more toxic substance. As usually defined, the IC50 is the concentration needed to halve the response being measured. Lower therefore signals greater potency in that assay. One may read the ED50 as the midpoint of the dose-response relation.

Consider `O=C1c2c(Cl)cccc2-n2cnc(-c3cccc(Cl)c3)c2[C@@H]2CCCN12` [A], for which the LD50 in data set [1] lay in the range of 2500 to 5000 mg/kg. Further, the concentration for half-maximal inhibition (IC50) in data set [2] amounted to 4.2 nM. It took a dose of 2.1 mg/kg to reach the 50% effect level in data set [3] (ED50).
Turning to `O=C1c2c(Cl)cccc2-n2cnc(-c3cccc(C(F)(F)F)c3)c2[C@@H]2CCCN12` [B, (S)-8-chloro-11,12,13,13a-tetrahydro-1-(α,α,α-trifluoro-m-tolyl)-9H-imidazo[1,5-a]pyrrolo[2,1-c][1,4]benzodiazepin-9-one], the 50% lethal dose (LD50) in data set [1] is 2500 to 5000 mg/kg. In data set [2], the IC50 stood at 40 nM. For the same compound, it took a dose of 4 mg/kg to reach the 50% effect level in data set [3] (ED50).
